The CC50 is the concentration giving 50% cytotoxicity. By EC50 is commonly meant the midpoint of the concentration-response curve.

The source of these data is article PMC9960243, “Cytotoxic and Antileishmanial Effects of the Monoterpene β-Ocimene” (Pharmaceuticals, 2023).

Data set [1] deals with Leishmania amazonensis promastigote plasmatic membrane. The format is cell-based. The conditions noted are these: not told. The method, then: Plasma membrane integrity in promastigote forms of L. amazonensis treated with β-ocimene was evaluated using the SYTOX green dye method. Promastigote forms in logarithmic growth were seeded in Schneider medium and exposed to β-ocimene at concentrations corresponding to IC50, 2 × IC50 and 4 × IC50 in the presence of SYTOX green dye (5 μM) for 7 h at 26 °C in a BOD incubator. The plates were then read in a fluorescence reader with an emission filter of 523 nm and excitation at 488 nm.

Data set [2] deals with macrophages infected with L. amazonensis. In words: Measurement of reactive oxygen species (H2DCFDA). It is filed as cell-based. The conditions noted are these: RAW 264.7 macrophages infected with L. amazonensis, 72 h. As for the experimental part: ROS levels, as produced by the macrophages infected with L. amazonensis and treated with β-ocimene, were determined by the H2DCFDA test. Macrophages were infected according to Section 2.5 and treated with β-ocimene (3.12–12.6 µM) for 72 h. At the end of the period, 10 µL of 20 µM H2 DCFDA dye was added. The plate was incubated at 37 °C for 30 min (in the dark), and the fluorescence intensity was measured using a spectrofluorometer (FLx800) with excitation at 485 nm and emission at 528 nm.

Data set [3] concerns RAW 264.7 macrophages. Nature of the data set: Phagocytosis assay (stained zymosan). It is filed as cell-based. To be noted: 3.12–25 μM, 72 h, macrophages not stimulated by L. amazonensis. As for the experimental part:
RAW 264.7 macrophages were plated in a 96-well plate at 10^5 cells per well in 100 μL of DMEM medium containing different concentrations of β-ocimene (3.12–25 μM). The plate was incubated for 72 h at 37 °C and 5% CO2; after which 10 μL of stained zymosan per well was added, and the plate conditioned for 30 min at 37 °C. Then, 100 μL of Baker’s fixative (4% v/v formaldehyde, 2% w/v sodium chloride, and 1% w/v calcium acetate in distilled water) was added to stop phagocytosis, and 30 min later, the plate was washed with 0.9% saline to remove the zymosan not phagocytized by macrophages. Afterwards, the supernatant was removed and 100 μL of extraction solution was added and solubilized in a Kline shaker. Absorbances were measured at 540 nm.

Data set [4] has as its system RAW 264.7 macrophages. Nature of the data set: Lysosomal activity (neutral red uptake). The format is cell-based. To be noted: 12.5 and 25 µM, 72 h, macrophages not stimulated by L. amazonensis. As for the experimental part: RAW 264.7 macrophages were added (10^5 cells per well) to the 96-well plate in 100 μL of DMEM with different concentrations of β-ocimene (3.12–25 μM). The plate was incubated for 72 h at 37 °C and 5% CO2. Afterwards, 10 μL of neutral red 0.2% DMSO solution was added and incubated for 30 min. The supernatant was then removed, and the wells were washed with 0.9% saline at 37 °C, and 100 μL of extraction solution was added to dissolve the neutral red inside the lysosomal secretion vesicles. After 30 min on a Kline shaker, the plate was read at 540 nm.

Data set [5] is described as follows: Cytotoxic effect on mammalian cells, Vero. To be noted: African green monkey, Vero cells. The format is cell-based.
Data set [6] has as its system RAW 264.7 macrophages infected with Leishmania amazonensis. In words: Treatment of infected macrophages (intra-macrophagic amastigotes, 72 h). It is filed as cell-based. The method, then: In a 24-well plate with 13 mm round sterile cover slips, RAW 264.7 macrophages were added (at a concentration of 10^5 cells to 1 mL of supplemented DMEM. For cell adhesion, the plates were incubated at 37 °C and 5% CO2 for 3 h. Three washes were then performed with PBS at 37 °C to discard non-adherent cells, after which 1 mL of DMEM supplemented (stationary phase) promastigote forms of L. amazonensis was added at the ratio of 10 promastigotes per macrophage. The plate was then incubated at 5% CO2 and 37 °C for 4 h. After infection, the medium was aspirated and the treatment was added using 1 mL of DMEM supplemented with β-ocimene (3.12–25 μM) with the reference drugs, meglumine antimoniate (1.56–200 μM) and amphotericin B (0.031–2 μM), this was subsequently incubated at 37 °C and 5% CO2 for 72 h. Finally, the coverslips were removed, fixed, stained, and mounted on permanent slides using Entellan. The number of infected macrophages and the number of parasites per macrophage were counted: 300 cells were evaluated on each slide at 1000× magnification. The infection index was calculated by multiplying the number of infected macrophages by the number of amastigotes per infected macrophage. The negative control was performed using DMEM with 0.5% DMSO. The supernatant was removed at the end of the experiment and kept at −20 °C for later use in nitric oxide dosing tests.

Data set [7] relates to RAW 264.7 macrophages uninfected and infected with Leishmania amazonensis. In words: Th1/Th2 cytokine (ELISA) and nitric oxide (Griess) production in macrophage supernatants. To be noted: 72 h. It is filed as cell-based. As for the experimental part: Modulation of Th1 (TNF-α, IL-12), Th2 (IL-10, IL-6), and NO cytokine production was investigated in the supernatants of infected macrophages, whether treated or untreated with β-ocimene. Cytokine concentration (pg/mL) in macrophage supernatants was determined using the ELISA sandwich technique according to the manufacturer’s (eBioscience) instructions, using interpolation with a standard curve of recombinant cytokines. Optical density was read at 450 nm using a microplate spectrophotometer.
Nitrite levels from the supernatants of the infected macrophages, whether treated or untreated with β-ocimene, were used indirectly to estimate NO production. The NO concentration (µM) was determined using the Griess reaction following a previously described methodology, by interpolation with a standard curve with NaNO2.
LPS (1 μg/mL) plus IFN-γ (1000 U/mL) were used as a positive control.
(ELISA stands for enzyme-linked immunosorbent assay.)

The test system of data set [8] is Promastigote forms of L. amazonensis. In words: Parasite morphological evaluation using atomic force microscopy (AFM). It is filed as cell-based, Leishmania amazonensis. To be noted: 1 × IC50 and 2 × IC50, 72 h. The method, then: Promastigote forms of L. amazonensis were grown in 96-well plates at a concentration of 10^6 per well in complete Schneider medium. β-ocimene was added at concentrations equivalent to IC50, 2 × IC50, and 4 × IC50, and incubated at 26 °C for 72 h in BOD, and the parasites were then washed twice with ice-cold PBS (under 1100× g for 15 min at room temperature), and then fixed with 2.5% (v/v) glutaraldehyde in PBS, pH 7.2, for 1 h. Morphological analysis using AFM (TT-AFM equipment, AFM Workshop-USA), at a resonant frequency of approximately 242 kHz, was then performed.

Where [9] appears, read: RAW 264.7 macrophages infected with L. amazonensis.

For `C=C/C(C)=C/CC=C(C)C` [β-ocimene, beta-3,7-dimethyl-1,3,6-octatriene], in data set [1], the “plasmatic membrane permeability (SYTOX green fluorescent signal)” value was “significant increase in permeability”. Besides, the ROS production result in data set [2] is listed as “increase”. Also, the “phagocytic activity (zymosan particles)” value in the data set with RAW 264.7 macrophages [3] is “no increase in phagocytosis of zymosan particles”. Also, the “lysosomal volume (neutral red retention)” value in the data set on RAW 264.7 macrophages [4] was “increase in the volume of lysosomal vesicles”. In addition, in data set [5], the CC50 came to 299 ± 7.17 µM. This molecule displayed a cytotoxicity at 50 µM in data set [5] (50 µM) of 1.14 ± 0.1%. Besides, the cytotoxicity at 100 µM in data set [5] (100 µM) came to 6.04 ± 0.41%. Besides, the cytotoxicity at 200 µM in data set [5] (200 µM) was found to be 36.2 ± 4.26%. In data set [5] (400 µM), the cytotoxicity at 400 µM came to 69.2 ± 4.9%. Moreover, the EC50 in data set [6] (Leishmania amazonensis, RAW264.7, 72 h, infected RAW 264.7 macrophages, read-out: Intramacrophagic Amastigotes EC50) was 0.89 ± 0.03 µM. In data set [6] (intra-macrophagic amastigote form), the “times more selective than amphotericin B (selectivity index)” value was 42.88 times. Besides, in data set [6] (low concentrations, 72 h), the “infection index (infection rate)” value is on record as “able to reduce”, the “number of amastigotes per macrophage” value was “able to reduce” and the “percentage of infected macrophages” value is “able to reduce”. In addition, in data set [7] (setting [9]), the IL-6 levels entry was “decrease”, the IL-10 levels entry is “decrease in levels of IL-10”, the IL-12 levels result is “did not affect IL-12 levels” and the NO production result is given as “increase”. Also, the TNF-α production entry in data set [7] (setting [9]) is listed as “increase in the production of TNF-α”. In data set [7] (uninfected RAW 264.7 macrophages), the “cytokine levels of uninfected macrophages compared to the control” value is “no significant differences”. Besides, in data set [8], the “morphological alterations (AFM)” value was “Loose membrane texture and abnormalities in the cell shape”.
